Article PMC10141580, “Cyclic Dichalcogenides Extend the Reach of Bioreductive Prodrugs to Harness Thiol/Disulfide Oxidoreductases: Applications to seco-Duocarmycins Targeting the Thioredoxin System” (ACS Central Science, 2023)
Like-named read-outs stand apart in the source and are kept apart here.

System: NCI-60 standardized human tumor cell line panel
Test: cells
Format: cell-based
[1] = cell line A549/ATCC (LC:A549/ATCC), TMI sheet
[2] = cell line BT-549 (BR:BT-549), TMI sheet
[3] = cell line CCRF-CEM (LE:CCRF-CEM), TMI sheet
[4] = cell line COLO 205 (CO:COLO 205), TMI sheet
[5] = cell line EKVX (LC:EKVX), TMI sheet
[6] = cell line HCC-2998 (CO:HCC-2998), TMI sheet
[7] = cell line HCT-15 (CO:HCT-15), TMI sheet
[8] = cell line HCT-116 (CO:HCT-116), TMI sheet
[9] = cell line HL-60(TB) (LE:HL-60(TB)), TMI sheet
[10] = cell line HOP-62 (LC:HOP-62), TMI sheet
[11] = cell line HOP-92 (LC:HOP-92), TMI sheet
[12] = cell line HT29 (CO:HT29), TMI sheet
[13] = cell line K-562 (LE:K-562), TMI sheet
[14] = cell line KM12 (CO:KM12), TMI sheet
[15] = cell line LOX IMVI (ME:LOX IMVI), TMI sheet
[16] = cell line M14 (ME:M14), TMI sheet
[17] = cell line MALME-3M (ME:MALME-3M), TMI sheet
[18] = cell line MCF7 (BR:MCF7), TMI sheet
[19] = cell line MDA-MB-435 (ME:MDA-MB-435), TMI sheet
[20] = cell line MOLT-4 (LE:MOLT-4), TMI sheet
[21] = cell line NCI-H23 (LC:NCI-H23), TMI sheet
[22] = cell line NCI-H226 (LC:NCI-H226), TMI sheet
[23] = cell line RPMI-8226 (LE:RPMI-8226), TMI sheet
[24] = cell line SF-268 (CNS:SF-268), TMI sheet
[25] = cell line SF-295 (CNS:SF-295), TMI sheet
[26] = cell line SF-539 (CNS:SF-539), TMI sheet
[27] = cell line SK-MEL-5 (ME:SK-MEL-5), TMI sheet
[28] = cell line SK-MEL-28 (ME:SK-MEL-28), TMI sheet
[29] = cell line SNB-19 (CNS:SNB-19), TMI sheet
[30] = cell line SR (LE:SR), TMI sheet
[31] = cell line SW-620 (CO:SW-620), TMI sheet
[32] = cell line T-47D (BR:T-47D), TMI sheet
[33] = cell line U251 (CNS:U251), TMI sheet
[34] = cell line UACC-62 (ME:UACC-62), TMI sheet
[35] = cell line UACC-257 (ME:UACC-257), TMI sheet

COc1cc2cc(C(=O)N3C[C@@H](CCl)c4c3cc(OC(=O)N(CCC(=O)N3CCN(C)CC3)[C@H]3CCSSC3)c3ccccc43)[nH]c2c(OC)c1OC [P-SS60-CBI-TMI]
GI50 (TK-10, read-out: GI50): 3400 nM
GI50 (U251, read-out: GI50): 160 nM
GI50 (UACC-62, read-out: GI50): 270 nM
GI50 (UACC-257, read-out: GI50): 630 nM
NCI-60 screening: Log(GI50) [1]: -6.82
NCI-60 screening: Log(RedIndex) [1]: 1.12
GI50 (cell line A549/ATCC (LC:A549/ATCC), TMI sheet, read-out: NCI-60 screening: Raw GI50): 150 nM
NCI-60 screening: Log(GI50) [2]: -6.64
NCI-60 screening: Log(RedIndex) [2]: 0.84
GI50 (cell line BT-549 (BR:BT-549), TMI sheet, read-out: NCI-60 screening: Raw GI50): 230 nM
NCI-60 screening: Log(GI50) [3]: -6.66
NCI-60 screening: Log(RedIndex) [3]: 0.66
GI50 (cell line CCRF-CEM (LE:CCRF-CEM), TMI sheet, read-out: NCI-60 screening: Raw GI50): 220 nM
NCI-60 screening: Log(GI50) [4]: -6.47
NCI-60 screening: Log(RedIndex) [4]: 0.6
NCI-60 screening: Log(GI50) [5]: -6.5
NCI-60 screening: Log(RedIndex) [5]: 0.79
NCI-60 screening: Log(GI50) [6]: -6.8
NCI-60 screening: Log(RedIndex) [6]: 0.98
GI50 (cell line HCC-2998 (CO:HCC-2998), TMI sheet, read-out: NCI-60 screening: Raw GI50): 160 nM
NCI-60 screening: Log(GI50) [7]: -6.59
NCI-60 screening: Log(RedIndex) [7]: 0.82
GI50 (cell line HCT-15 (CO:HCT-15), TMI sheet, read-out: NCI-60 screening: Raw GI50): 260 nM
NCI-60 screening: Log(GI50) [8]: -6.8
NCI-60 screening: Log(RedIndex) [8]: 0.98
GI50 (cell line HCT-116 (CO:HCT-116), TMI sheet, read-out: NCI-60 screening: Raw GI50): 160 nM
NCI-60 screening: Log(GI50) [9]: -6.92
NCI-60 screening: Log(RedIndex) [9]: 0.8
NCI-60 screening: Log(GI50) [10]: -6.96
NCI-60 screening: Log(RedIndex) [10]: 0.73
NCI-60 screening: Log(GI50) [11]: -6.46
NCI-60 screening: Log(RedIndex) [11]: 0.86
NCI-60 screening: Log(GI50) [12]: -6.57
NCI-60 screening: Log(RedIndex) [12]: 0.75
GI50 (cell line HT29 (CO:HT29), TMI sheet, read-out: NCI-60 screening: Raw GI50): 270 nM
NCI-60 screening: Log(GI50) [13]: -6.79
NCI-60 screening: Log(RedIndex) [13]: 0.62
GI50 (cell line K-562 (LE:K-562), TMI sheet, read-out: NCI-60 screening: Raw GI50): 160 nM
NCI-60 screening: Log(GI50) [14]: -6.57
NCI-60 screening: Log(RedIndex) [14]: 0.89
GI50 (cell line KM12 (CO:KM12), TMI sheet, read-out: NCI-60 screening: Raw GI50): 270 nM
NCI-60 screening: Log(GI50) [15]: -6.68
NCI-60 screening: Log(RedIndex) [15]: 0.72
GI50 (cell line LOX IMVI (ME:LOX IMVI), TMI sheet, read-out: NCI-60 screening: Raw GI50): 210 nM
NCI-60 screening: Log(GI50) [16]: -6.72
NCI-60 screening: Log(RedIndex) [16]: 0.9
GI50 (cell line M14 (ME:M14), TMI sheet, read-out: NCI-60 screening: Raw GI50): 190 nM
NCI-60 screening: Log(GI50) [17]: -6.55
NCI-60 screening: Log(RedIndex) [17]: 0.75
NCI-60 screening: Log(GI50) [18]: -7.45
NCI-60 screening: Log(RedIndex) [18]: 0.95
NCI-60 screening: Log(GI50) [19]: -6.67
NCI-60 screening: Log(RedIndex) [19]: 0.92
GI50 (cell line MDA-MB-435 (ME:MDA-MB-435), TMI sheet, read-out: NCI-60 screening: Raw GI50): 210 nM
NCI-60 screening: Log(GI50) [20]: -7.05
NCI-60 screening: Log(RedIndex) [20]: 0.82
NCI-60 screening: Log(GI50) [21]: -7.26
NCI-60 screening: Log(RedIndex) [21]: 0.93
NCI-60 screening: Log(GI50) [22]: -6.36
NCI-60 screening: Log(RedIndex) [22]: 0.52
NCI-60 screening: Log(GI50) [23]: -6.65
NCI-60 screening: Log(RedIndex) [23]: 0.82
GI50 (cell line RPMI-8226 (LE:RPMI-8226), TMI sheet, read-out: NCI-60 screening: Raw GI50): 220 nM
NCI-60 screening: Log(GI50) [24]: -6.73
NCI-60 screening: Log(RedIndex) [24]: 0.92
GI50 (cell line SF-268 (CNS:SF-268), TMI sheet, read-out: NCI-60 screening: Raw GI50): 190 nM
NCI-60 screening: Log(GI50) [25]: -6.84
NCI-60 screening: Log(RedIndex) [25]: 1.03
NCI-60 screening: Log(GI50) [26]: -6.78
NCI-60 screening: Log(RedIndex) [26]: 0.89
GI50 (cell line SF-539 (CNS:SF-539), TMI sheet, read-out: NCI-60 screening: Raw GI50): 170 nM
NCI-60 screening: Log(GI50) [27]: -6.78
NCI-60 screening: Log(RedIndex) [27]: 0.99
GI50 (cell line SK-MEL-5 (ME:SK-MEL-5), TMI sheet, read-out: NCI-60 screening: Raw GI50): 170 nM
NCI-60 screening: Log(GI50) [28]: -6.53
NCI-60 screening: Log(RedIndex) [28]: 1.09
GI50 (cell line SK-MEL-28 (ME:SK-MEL-28), TMI sheet, read-out: NCI-60 screening: Raw GI50): 290 nM
NCI-60 screening: Log(GI50) [29]: -6.6
NCI-60 screening: Log(RedIndex) [29]: 0.94
GI50 (cell line SNB-19 (CNS:SNB-19), TMI sheet, read-out: NCI-60 screening: Raw GI50): 250 nM
NCI-60 screening: Log(GI50) [30]: -7.47
NCI-60 screening: Log(RedIndex) [30]: 0.91
NCI-60 screening: Log(GI50) [31]: -6.66
NCI-60 screening: Log(RedIndex) [31]: 0.93
GI50 (cell line SW-620 (CO:SW-620), TMI sheet, read-out: NCI-60 screening: Raw GI50): 220 nM
NCI-60 screening: Log(GI50) [32]: -6.16
NCI-60 screening: Log(RedIndex) [32]: 0.44
NCI-60 screening: Log(GI50) [33]: -6.79
NCI-60 screening: Log(RedIndex) [33]: 0.96
GI50 (cell line U251 (CNS:U251), TMI sheet, read-out: NCI-60 screening: Raw GI50): 160 nM
NCI-60 screening: Log(GI50) [34]: -6.57
NCI-60 screening: Log(RedIndex) [34]: 0.75
GI50 (cell line UACC-62 (ME:UACC-62), TMI sheet, read-out: NCI-60 screening: Raw GI50): 270 nM
NCI-60 screening: Log(GI50) [35]: -6.2
NCI-60 screening: Log(RedIndex) [35]: 0.5
GI50 (read-out: NCI-60 screening: Raw GI50): 230 nM
